# Test results: patent US20190209501A1, “COMPOSITIONS AND METHODS OF USE OF BETA-HYDROXY-BETA-METHYLBUTYRATE (HMB) […] IN[…]” (Texas Tech University Office of Research Commercialization, priority 2018, published 2019)
# Key:
# [1] = Blood markers (lipids, glucose, insulin); assay type: in vivo, human; conditions: for Cholesterol Δ / Cholesterol Δ (%) / Glucose Δ / Glucose Δ (%) / HDL Δ / HDL Δ (%) / Insulin Δ / Insulin Δ (%) / LDL Δ / LDL Δ (%) / Triglycerides Δ / Triglycerides Δ (%) / VLDL Δ / VLDL Δ (%): baseline to W 8; for Cholesterol ES (d) / Glucose ES (d) / HDL ES (d) / Insulin ES (d) / LDL ES (d) / Triglycerides ES (d) / VLDL ES (d): effect size
# Text: At baseline and after 4 and 8 weeks of the intervention, participants completed two testing sessions: (1) a morning assessment conducted after an overnight fast for assessment of body composition, metabolism, vascular measures and subjective factors: and (2) an afternoon assessment of muscular performance, conducted in the non-fasted state. For morning assessments, participants reported to the laboratory after abstention from eating, drinking, exercising and utilizing caffeine or nicotine for ≥8 hours. Participants were interviewed to confirm adherence to these pre-assessment restrictions. The actual abstention from exercise was ≥14 hours due to the scheduling of exercise sessions. Participants reported to the laboratory wearing athletic clothing, and all metal and accessories were removed from the body prior to testing. Each participant voided her bladder and provided a urine sample. Urine samples were assessed for urine specific gravity (USG) using a digital refractometer (PA201X-093. Misco, Solon, Ohio. USA). Additionally, a standard urinary HCG test was performed to confirm that each participant was not pregnant. Finally, urinary samples were frozen at −80° C. for assessment of urinary HMB content after study unblinding. After voiding, each participant's body mass (BM) and height were determined via digital scale with stadiometer (Seca 769, Hamburg, Germany). Blood draws were performed at Texas Tech University Student Health Services after an overnight fast, and participants completed at-home saliva collections for assessment of the cortisol awakening response (CAR).
# Blood samples collected by certified health professionals were transported via courier to a local clinical laboratory for analysis (University Medical Center Health System, Lubbock, Tex., USA). Testing was performed using standard instrumentation (Cobas 6000, Roche Diagnostics, Risch-Rotkreuz. Switzerland). Total cholesterol, triglycerides and HDL cholesterol were assessed using enzymatic colorimetric assays, and VLDL and non-HDL cholesterol were calculated. LDL cholesterol was calculated using the Martin-Hopkins equation (35). Glucose was measured using an enzymatic UV test, and insulin was assessed via electrochemiluminescence immunoassay. Results of the clinical laboratory analyses were provided to study investigators.
# [2] = Percent body fat by underwater weighing, HMB without intermittent fasting (Panton et al.); assay type: in vivo, human; conditions: 3 g/d Calcium-HMB without intermittent fasting + RT
# Experimental: In an earlier study described in Panton et al. (54) trained and untrained females (n=18, 27±2.1 y, 62.3±2.2 kg) were randomized to 3 g/d Calcium-HMB without intermitted fasting. The HMB only group completed 4 weeks of supervised resistance training and trained three times per week. Body composition was measured before and after the 4 weeks of training using underwater weighing procedures (55). Percent body fat (BF %) was estimated from the Siri equation^5.
structure (smiles),measurement,setting,value
"CC(C)(O)CC(=O)O [TRFHMB, β-hydroxy-β-methylbutyrate]",Cholesterol,"[1]; ITT, Baseline",178 ± 9 mg/dL
same,Glucose,"[1]; ITT, Baseline",90 ± 3 mg/dL
same,HDL,"[1]; ITT, Baseline",75 ± 4 mg/dL
same,Insulin,"[1]; ITT, Baseline",10 ± 2 mcU/mL
same,LDL,"[1]; ITT, Baseline",85 ± 7 mg/dL
same,Triglycerides,"[1]; ITT, Baseline",95 ± 10 mg/dL
same,VLDL,"[1]; ITT, Baseline",19 ± 2 mg/dL
same,Cholesterol,"[1]; ITT, W 8",183 ± 11 mg/dL
same,Glucose,"[1]; ITT, W 8",89 ± 3 mg/dL
same,HDL,"[1]; ITT, W 8",68 ± 5 mg/dL
same,Insulin,"[1]; ITT, W 8",13 ± 3 mcU/mL
same,LDL,"[1]; ITT, W 8",97 ± 7 mg/dL
same,Triglycerides,"[1]; ITT, W 8",85 ± 12 mg/dL
same,VLDL,"[1]; ITT, W 8",17 ± 2 mg/dL
same,Cholesterol Δ,[1]; ITT,5 mg/dL
same,Cholesterol Δ (%),[1]; ITT,3%
same,Glucose Δ,[1]; ITT,-1 mg/dL
same,Glucose Δ (%),[1]; ITT,−1%
same,HDL Δ,[1]; ITT,-7 mg/dL
same,HDL Δ (%),[1]; ITT,−9%
same,Insulin Δ,[1]; ITT,3 mcU/mL
same,Insulin Δ (%),[1]; ITT,30%
same,LDL Δ,[1]; ITT,12 mg/dL
same,LDL Δ (%),[1]; ITT,14%
same,Triglycerides Δ,[1]; ITT,-10 mg/dL
same,Triglycerides Δ (%),[1]; ITT,−11%
same,VLDL Δ,[1]; ITT,-2 mg/dL
same,VLDL Δ (%),[1]; ITT,−11%
same,Cholesterol ES (d),[1]; ITT,0.14
same,Glucose ES (d),[1]; ITT,−0.09
same,HDL ES (d),[1]; ITT,−0.43
same,Insulin ES (d),[1]; ITT,0.27
same,LDL ES (d),[1]; ITT,0.48
same,Triglycerides ES (d),[1]; ITT,−0.25
same,VLDL ES (d),[1]; ITT,−0.28
same,Cholesterol,"[1]; PP, Baseline",168 ± 13 mg/dL
same,Glucose,"[1]; PP, Baseline",92 ± 4 mg/dL
same,HDL,"[1]; PP, Baseline",72 ± 5 mg/dL
same,Insulin,"[1]; PP, Baseline",9 ± 3 mcU/mL
same,LDL,"[1]; PP, Baseline",78 ± 9 mg/dL
same,Triglycerides,"[1]; PP, Baseline",91 ± 14 mg/dL
same,VLDL,"[1]; PP, Baseline",18 ± 3 mg/dL
same,Cholesterol,"[1]; PP, W 8",183 ± 15 mg/dL
same,Glucose,"[1]; PP, W 8",90 ± 4 mg/dL
same,HDL,"[1]; PP, W 8",70 ± 6 mg/dL
same,Insulin,"[1]; PP, W 8",10 ± 3 mcU/mL
same,LDL,"[1]; PP, W 8",96 ± 9 mg/dL
same,Triglycerides,"[1]; PP, W 8",80 ± 17 mg/dL
same,VLDL,"[1]; PP, W 8",16 ± 3 mg/dL
same,Cholesterol Δ,[1]; PP,15 mg/dL
same,Cholesterol Δ (%),[1]; PP,9%
same,Glucose Δ,[1]; PP,-2 mg/dL
same,Glucose Δ (%),[1]; PP,−2%
same,HDL Δ,[1]; PP,-2 mg/dL
same,HDL Δ (%),[1]; PP,−3%
same,Insulin Δ,[1]; PP,1 mcU/mL
same,Insulin Δ (%),[1]; PP,11%
same,LDL Δ,[1]; PP,18 mg/dL
same,LDL Δ (%),[1]; PP,23%
same,Triglycerides Δ,[1]; PP,-11 mg/dL
same,Triglycerides Δ (%),[1]; PP,−12%
same,VLDL Δ,[1]; PP,-2 mg/dL
same,VLDL Δ (%),[1]; PP,−11%
same,Cholesterol ES (d),[1]; PP,0.40
same,Glucose ES (d),[1]; PP,−0.19
same,HDL ES (d),[1]; PP,−0.14
same,Insulin ES (d),[1]; PP,0.55
same,LDL ES (d),[1]; PP,0.76
same,Triglycerides ES (d),[1]; PP,−0.27
same,VLDL ES (d),[1]; PP,−0.30
same,BF % 4-week effect size (d),[2],−0.15
